Measurements: patent US10323038B2, “Pyrazole compounds and methods of making and using same” (ABIDE THERAPEUTICS, INC., priority 2015, dated 2019)

Key:
MAGL = MAGL (Mus musculus (Mouse), UniProt O35678); test: In vitro competitive activity-based protein profiling, MAGL (mouse); type: biochemical; settings: for inhibition at 1 µM: read-out: MAGL % inh. 1 μM (mouse)
Summary of the method: (§1)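 Proteomes at 1.0 mg/mL protein (mouse brain membranes or cell lysates; human prefrontal cortex or cell membranes) preincubated with inhibitor 30 min at 37 °C. Then FP-Rh or HT-01 probe (50 μM stock) added for 30 min at 37 °C. MAGL and FAAH activity measured by SDS-PAGE band fluorescence.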

FAAH = FAAH (Mus musculus (Mouse), UniProt O08914); test: In vitro competitive activity-based protein profiling, FAAH (mouse); type: biochemical; settings: for inhibition at 1 µM: read-out: FAAH % inh. 1 μM (mouse)
Summary of the method: as §1

Chain of FAAH (O08914 whole entry): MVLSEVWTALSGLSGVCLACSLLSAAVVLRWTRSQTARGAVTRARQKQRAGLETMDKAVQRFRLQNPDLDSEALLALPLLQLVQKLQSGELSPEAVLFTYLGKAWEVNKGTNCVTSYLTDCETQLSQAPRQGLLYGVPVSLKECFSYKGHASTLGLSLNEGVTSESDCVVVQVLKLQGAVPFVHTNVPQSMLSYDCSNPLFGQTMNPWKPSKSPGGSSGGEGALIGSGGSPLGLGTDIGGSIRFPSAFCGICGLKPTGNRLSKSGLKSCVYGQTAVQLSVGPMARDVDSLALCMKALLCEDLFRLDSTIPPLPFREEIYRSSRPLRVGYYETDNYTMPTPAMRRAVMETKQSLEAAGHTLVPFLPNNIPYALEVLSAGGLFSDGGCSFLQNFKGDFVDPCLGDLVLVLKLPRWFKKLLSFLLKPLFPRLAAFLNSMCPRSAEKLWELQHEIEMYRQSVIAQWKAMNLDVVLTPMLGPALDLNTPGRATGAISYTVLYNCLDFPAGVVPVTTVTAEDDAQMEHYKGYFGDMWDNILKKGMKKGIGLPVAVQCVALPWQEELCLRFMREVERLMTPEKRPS
Chain of MAGL (O35678 whole entry): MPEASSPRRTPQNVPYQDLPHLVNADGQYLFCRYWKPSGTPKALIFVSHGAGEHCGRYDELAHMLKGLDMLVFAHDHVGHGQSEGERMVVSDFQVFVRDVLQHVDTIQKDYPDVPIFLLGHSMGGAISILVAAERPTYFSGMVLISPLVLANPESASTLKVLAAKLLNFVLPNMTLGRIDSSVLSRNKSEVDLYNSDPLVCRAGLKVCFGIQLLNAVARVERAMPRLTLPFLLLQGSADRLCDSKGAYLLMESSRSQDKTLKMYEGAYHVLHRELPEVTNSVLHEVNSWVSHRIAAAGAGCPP

CC(=O)N(C)c1cnn(C(=O)N2CCN(Cc3ccc(C(F)(F)F)cc3)CC2)c1 [Example 198, N-methyl-N-(1-(4-(4-(trifluoromethyl)benzyl)piperazine-1-carbonyl)-1H-pyrazol-4-yl)acetamide]
inhibition at 1 µM (MAGL): ≥ 75% | IC50 (FAAH): 100 to 1000 nM | inhibition at 1 µM (FAAH): ≥ 75%

CC(=O)N(C)c1cnn(C(=O)N2C[C@H]3C[C@@H](N(C)Cc4cc(C(F)(F)F)ccc4C(F)(F)F)C[C@H]3C2)c1 [Example 140, N-(1-(cis-5-((2,5-bis(trifluoromethyl)benzyl)(methyl)amino)octahydrocyclopenta[c]pyrrole-2-carbonyl)-1H-pyrazol-4-yl)-N-methylacetamide]
inhibition at 1 µM (MAGL): ≥ 75% | inhibition at 1 µM (FAAH): ≥ 75%

CC(=O)N(C)c1cnn(C(=O)N2C[C@H]3C[C@@H](N(C)Cc4cc(Cl)ccc4Cl)C[C@H]3C2)c1 [Example 162, N-(1-(cis-5-((2,5-dichlorobenzyl)(methyl)amino)octahydrocyclopenta[c]pyrrole-2-carbonyl)-1H-pyrazol-4-yl)-N-methylacetamide]
inhibition at 1 µM (MAGL): ≥ 75% | inhibition at 1 µM (FAAH): ≥ 75%

CS(=O)(=O)Nc1cnn(C(=O)N2CCC3(CC2)CN(Cc2ccc(N4CCCC4)cc2C(F)(F)F)C3)c1 [Example 281, N-(1-(2-(4-(pyrrolidin-1-yl)-2-(trifluoromethyl)benzyl)-2,7-diazaspiro[3.5]nonane-7-carbonyl)-1H-pyrazol-4-yl)methanesulfonamide]
inhibition at 1 µM (MAGL): ≥ 75% | inhibition at 1 µM (FAAH): ≥ 75%

CC(=O)N(C)c1cnn(C(=O)N2CCC3(CCN(Cc4cccc(Cl)c4)C3)C2)c1 (stereo not shown) [Example 78, N-(1-(7-(3-chlorobenzyl)-2,7-diazaspiro[4.4]nonane-2-carbonyl)-1H-pyrazol-4-yl)-N-methylacetamide]
IC50 (MAGL): 1000 to 10000 nM | inhibition at 1 µM (MAGL): 50 to 75% | IC50 (FAAH): ≤ 100 nM | inhibition at 1 µM (FAAH): ≥ 75%

CC(=O)N(C)c1cnn(C(=O)N2C[C@H]3C[C@H](N(C)Cc4ccccc4Cl)C[C@H]3C2)c1 [Example 145, N-(1-(trans-5-((2-chlorobenzyl)(methyl)amino)octahydrocyclopenta[c]pyrrole-2-carbonyl)-1H-pyrazol-4-yl)-N-methylacetamide]
IC50 (MAGL): ≤ 100 nM | inhibition at 1 µM (MAGL): ≥ 75% | IC50 (FAAH): ≤ 100 nM | inhibition at 1 µM (FAAH): ≥ 75%

CC(=O)N(C)c1cnn(C(=O)N2CCC3(CCN(Cc4ccc(-c5cnccn5)cc4Cl)C3)C2)c1 (stereo not shown) [Example 264, N-(1-(7-(2-chloro-4-(pyrazin-2-yl)benzyl)-2,7-diazaspiro[4.4]nonane-2-carbonyl)-1H-pyrazol-4-yl)-N-methylacetamide]
inhibition at 1 µM (MAGL): ≥ 75% | inhibition at 1 µM (FAAH): ≥ 75%

CC(=O)N(C)c1cnn(C(=O)N2CC3CN(Cc4ccc(OCC(=O)N5CCCC5)cc4C(F)(F)F)CC3C2)c1 (stereo not shown) [Example 256, N-methyl-N-(1-(5-(4-(2-oxo-2-(pyrrolidin-1-yl)ethoxy)-2-(trifluoromethyl)benzyl)octahydropyrrolo [3,4-c]pyrrole-2-carbonyl)-1H-pyrazol-4-yl)acetamide]
inhibition at 1 µM (MAGL): 0 to 25% | inhibition at 1 µM (FAAH): ≥ 75%

CS(=O)(=O)Nc1cnn(C(=O)N2CCN(Cc3cccc(Oc4ccc(Cl)cc4)c3)CC2)c1 [Example 296, N-(1-(4-(3-(4-chlorophenoxy)benzyl)piperazine-1-carbonyl)-1H-pyrazol-4-yl)methanesulfonamide]
inhibition at 1 µM (MAGL): ≥ 75% | inhibition at 1 µM (FAAH): ≥ 75%

CC(=O)N(C)c1cnn(C(=O)N2CC3CN(Cc4cc(Cl)ccc4C(F)(F)F)CC3C2)c1 (stereo not shown) [Example 104, N-(1-(5-(5-chloro-2-(trifluoromethyl)benzyl)octahydropyrrolo[3,4-c]pyrrole-2-carbonyl)-1H-pyrazol-4-yl)-N-methylacetamide]
inhibition at 1 µM (MAGL): ≥ 75% | inhibition at 1 µM (FAAH): ≥ 75%

CC(=O)N(C)c1cnn(C(=O)N2C[C@H]3C[C@H](N(C)Cc4cc(N5CCCC5)ccc4C(F)(F)F)C[C@H]3C2)c1 [Example 142, N-methyl-N-(1-(trans-5-(methyl(5-(pyrrolidin-1-yl)-2-(trifluoromethyl)benzyl)amino)octahydrocyclopenta[c]pyrrole-2-carbonyl)-1H-pyrazol-4-yl)acetamide]
inhibition at 1 µM (MAGL): ≥ 75% | inhibition at 1 µM (FAAH): ≥ 75%

CC(=O)N(C)c1cnn(C(=O)N2CCC3(CC2)CN(Cc2ccc(N4CCOCC4)cc2C)C3)c1 [Example 29, N-methyl-N-(1-(2-(2-methyl-4-morpholinobenzyl)-2,7-diazaspiro[3.5]nonane-7-carbonyl)-1H-pyrazol-4-yl)acetamide]
inhibition at 1 µM (MAGL): ≥ 75% | inhibition at 1 µM (FAAH): 25 to 50%

CC(=O)N(C)c1cnn(C(=O)N2CCC3(CC2)CN(Cc2ccccc2C(F)(F)F)C3)c1 [Example 44, N-methyl-N-(1-(2-(2-(trifluoromethyl)benzyl)-2,7-diazaspiro[3.5]nonane-7-carbonyl)-1H-pyrazol-4-yl)acetamide]
IC50 (MAGL): ≤ 100 nM | inhibition at 1 µM (MAGL): ≥ 75% | IC50 (FAAH): ≤ 100 nM | inhibition at 1 µM (FAAH): ≥ 75%

CS(=O)(=O)Nc1cnn(C(=O)N2CCC3(CCN(Cc4cc(Cl)ccc4C(F)(F)F)C3)CC2)c1 [Example 276, N-(1-(2-(5-chloro-2-(trifluoromethyl)benzyl)-2,8-diazaspiro[4.5]decane-8-carbonyl)-1H-pyrazol-4-yl)methanesulfonamide]
inhibition at 1 µM (MAGL): ≥ 75% | inhibition at 1 µM (FAAH): ≥ 75%

CC(=O)N(C)c1cnn(C(=O)N2CCC3(CCN(Cc4cccc(Cl)c4C)C3)C2)c1 (stereo not shown) [Example 57, N-(1-(7-(3-chloro-2-methylbenzyl)-2,7-diazaspiro[4.4]nonane-2-carbonyl)-1H-pyrazol-4-yl)-N-methylacetamide]
IC50 (MAGL): 100 to 1000 nM | inhibition at 1 µM (MAGL): ≥ 75% | IC50 (FAAH): ≤ 100 nM | inhibition at 1 µM (FAAH): ≥ 75%

CC(=O)N(C)c1cnn(C(=O)N2CC3CN(Cc4ccc(-c5cnccn5)cc4Cl)CC3C2)c1 (stereo not shown) [Example 266, N-(1-(5-(2-chloro-4-(pyrazin-2-yl)benzyl)octahydropyrrolo[3,4-c]pyrrole-2-carbonyl)-1H-pyrazol-4-yl)-N-methylacetamide]
inhibition at 1 µM (MAGL): ≥ 75% | inhibition at 1 µM (FAAH): ≥ 75%

CC(=O)N(C)c1cnn(C(=O)N2CC3CN(Cc4cccc(OCc5ccccc5)c4)CC3C2)c1 (stereo not shown) [Example 239, N-(1-(5-(3-(benzyloxy)benzyl)octahydropyrrolo[3,4-c]pyrrole-2-carbonyl)-1H-pyrazol-4-yl)-N-methylacetamide]
IC50 (MAGL): ≤ 100 nM | inhibition at 1 µM (MAGL): ≥ 75% | IC50 (FAAH): ≤ 100 nM | inhibition at 1 µM (FAAH): ≥ 75%

CC(=O)N(C)c1cnn(C(=O)N2CCC3(CC2)CN(Cc2ccccc2C)C3)c1 [Example 42, N-methyl-N-(1-(2-(2-methylbenzyl)-2,7-diazaspiro[3.5]nonane-7-carbonyl)-1H-pyrazol-4-yl)acetamide]
inhibition at 1 µM (MAGL): ≥ 75% | inhibition at 1 µM (FAAH): ≥ 75%

CC(=O)N(C)c1cnn(C(=O)N2CCN(Cc3ccc(Cl)cc3)CC2)c1 [Example 194, N-(1-(4-(4-chlorobenzyl)piperazine-1-carbonyl)-1H-pyrazol-4-yl)-N-methylacetamide]
IC50 (MAGL): 100 to 1000 nM | inhibition at 1 µM (MAGL): ≥ 75% | IC50 (FAAH): 1000 to 10000 nM | inhibition at 1 µM (FAAH): ≥ 75%

CC(=O)N(C)c1cnn(C(=O)N2CC3CN(Cc4ccc(N5CCCC5)cc4)CC3C2)c1 (stereo not shown) [Example 13, N-methyl-N-(1-(5-(4-(pyrrolidin-1-yl)benzyl)octahydropyrrolo[3,4-c]pyrrole-2-carbonyl)-1H-pyrazol-4-yl)acetamide]
IC50 (MAGL): 100 to 1000 nM | inhibition at 1 µM (MAGL): ≥ 75% | IC50 (FAAH): 100 to 1000 nM | inhibition at 1 µM (FAAH): ≥ 75%

CC(=O)N(C)c1cnn(C(=O)N2CC3CN(Cc4cc(Cl)cc(OCc5ccccc5)c4)CC3C2)c1 (stereo not shown) [Example 251, N-(1-(5-(3-(benzyloxy)-5-chlorobenzyl)octahydropyrrolo[3,4-c]pyrrole-2-carbonyl)-1H-pyrazol-4-yl)-N-methylacetamide]
IC50 (MAGL): ≤ 100 nM | inhibition at 1 µM (MAGL): ≥ 75% | IC50 (FAAH): ≤ 100 nM | inhibition at 1 µM (FAAH): ≥ 75%

CC(=O)N(C)c1cnn(C(=O)N2CC3CN(Cc4ccc(N5CCCC5)cc4C(F)(F)F)CC3C2)c1 (stereo not shown) [Example 93, N-methyl-N-(1-(5-(4-(pyrrolidin-1-yl)-2-(trifluoromethyl)benzyl)octahydropyrrolo[3,4-c]pyrrole-2-carbonyl)-1H-pyrazol-4-yl)acetamide]
IC50 (MAGL): ≤ 100 nM | inhibition at 1 µM (MAGL): ≥ 75% | IC50 (FAAH): ≤ 100 nM | inhibition at 1 µM (FAAH): ≥ 75%

CC(=O)N(C)c1cnn(C(=O)N2CCC3(CCN(Cc4cccc(N5CCCC5)c4)C3)C2)c1 (stereo not shown) [Example 82, N-methyl-N-(1-(7-(3-(pyrrolidin-1-yl)benzyl)-2,7-diazaspiro[4.4]nonane-2-carbonyl)-1H-pyrazol-4-yl)acetamide]
inhibition at 1 µM (MAGL): 25 to 50% | inhibition at 1 µM (FAAH): ≥ 75%

CC(=O)N(C)c1cnn(C(=O)N2CCC3(CC2)CN(Cc2ccccc2N2CCCC2)C3)c1 [Example 45, N-methyl-N-(1-(2-(2-(pyrrolidin-1-yl)benzyl)-2,7-diazaspiro[3.5]nonane-7-carbonyl)-1H-pyrazol-4-yl)acetamide]
inhibition at 1 µM (MAGL): ≥ 75% | inhibition at 1 µM (FAAH): 0 to 25%

CC(=O)N(C)c1cnn(C(=O)N2CC3CN(Cc4ccc(OC(C)C)cc4C(F)(F)F)CC3C2)c1 (stereo not shown) [Example 255, N-(1-(5-(4-isopropoxy-2-(trifluoromethyl)benzyl)octahydropyrrolo [3,4-c]pyrrole-2-carbonyl)-1H-pyrazol-4-yl)-N-methylacetamide]
inhibition at 1 µM (MAGL): ≥ 75% | inhibition at 1 µM (FAAH): ≥ 75%

CC(=O)N(C)c1cnn(C(=O)N2CC3CN(Cc4ccc(N5CCOCC5)cc4C)CC3C2)c1 (stereo not shown) [Example 17, N-methyl-N-(1-(5-(2-methyl-4-morpholinobenzyl)octahydropyrrolo[3,4-c]pyrrole-2-carbonyl)-1H-pyrazol-4-yl)acetamide]
inhibition at 1 µM (MAGL): ≥ 75% | inhibition at 1 µM (FAAH): ≥ 75%

COc1ccc(CN2CC3(CCN(C(=O)n4cc(N(C)C(C)=O)cn4)CC3)C2)cc1 [Example 33, N-(1-(2-(4-methoxybenzyl)-2,7-diazaspiro[3.5]nonane-7-carbonyl)-1H-pyrazol-4-yl)-N-methylacetamide]
inhibition at 1 µM (MAGL): 50 to 75% | inhibition at 1 µM (FAAH): 25 to 50%
